Measured values published in ChEMBL document CHEMBL2385047, “Synthesis and antifungal evaluation of pentyloxyl-diphenylisoxazoloyl pneumocandins and echinocandins” (Bioorg Med Chem Lett, 2013).
Values after ≈ are worked out from the molar mass of the structure shown. Numbered stars: 1 amine (or outer) side, 2 acyl side, 3 side chain; on linkers, the order of the positions; unused ones are H or OH. Bridge positions count the residues as written; N and C are the ends. Square brackets hold non-standard residues; d marks the D form. Peptide text beside a SMILES is read from it. * marks the point of attachment. Orn(4R-OH,5R-OH) = O=C([C@H](C[C@@H](O)[C@@H](O)N[*:3])N[*:1])[*:2]; hTyr(3S-OH,4S-OH) = N[C@H](C(=O)O)[C@H](O)[C@@H](O)c1ccc(O)cc1; X1 = CCCCCOc1ccc(-c2cc(-c3ccc(C(=O)*)cc3)no2)cc1; Gln(3R-OH) = NC(=O)C[C@@H](O)[C@H](N)C(=O)O; Pro(3S-OH) = O=C(O)[C@H]1NCC[C@@H]1O; Hyp = O=C(O)[C@@H]1C[C@@H](O)CN1

Assays:
Candida albicans [1] = test: Antifungal activity against Candida albicans CAI4-R1 assessed as growth inhibition after 24 hrs by NCCLS broth microdilution method; type: functional; details: CAI4-R1, 24 h
Escherichia coli = test: Antibacterial activity against Escherichia coli ATCC 25922 assessed as growth inhibition after 24 hrs by NCCLS broth microdilution method; type: functional; details: ATCC 25922, 24 h, read-out: MIC100
Cryptococcus neoformans = test: Antifungal activity against capsular wild type Cryptococcus neoformans MY2061 assessed as growth inhibition after 24 hrs by NCCLS broth microdilution method; type: functional; details: MY2061, 24 h, read-out: MIC100
Candida albicans [2] = test: Antifungal activity against caspofungin-resistant Candida albicans CLY-16996 harboring 1,3-beta-D-glucan synthase component FKS1/FKS1 S645F mutant assessed as growth inhibition after 24 hrs by NCCLS broth microdilution method; type: functional; details: CLY-16996, 24 h
Clavispora lusitaniae = test: Antifungal activity against wild type Candida lusitaniae MY1396 assessed as growth inhibition after 24 hrs by NCCLS broth microdilution method; type: functional; details: MY1396, 24 h
Staphylococcus aureus = test: Antibacterial activity against methicillin-sensitive Staphylococcus aureus MB2865 assessed as growth inhibition after 24 hrs by NCCLS broth microdilution method; type: functional; details: MB2865, 24 h, read-out: MIC100
Aspergillus fumigatus = test: Antifungal activity against Aspergillus fumigatus MF5668 caspofungin spontaneous resistance mutant assessed as growth inhibition after 24 hrs by NCCLS broth microdilution method; type: functional; details: MF5668, 24 h
Beta-1,3-glucan synthase = target: T1, Beta-1,3-glucan synthase (Candida albicans, UniProt O13383); test: Inhibition of wild type Candida albicans MY1055 1,3-beta-D-glucan synthase using UDP[6,3H]-glucose as substrate after 60 mins by liquid scintillation counting analysis
T1 sequence (O13383 whole entry): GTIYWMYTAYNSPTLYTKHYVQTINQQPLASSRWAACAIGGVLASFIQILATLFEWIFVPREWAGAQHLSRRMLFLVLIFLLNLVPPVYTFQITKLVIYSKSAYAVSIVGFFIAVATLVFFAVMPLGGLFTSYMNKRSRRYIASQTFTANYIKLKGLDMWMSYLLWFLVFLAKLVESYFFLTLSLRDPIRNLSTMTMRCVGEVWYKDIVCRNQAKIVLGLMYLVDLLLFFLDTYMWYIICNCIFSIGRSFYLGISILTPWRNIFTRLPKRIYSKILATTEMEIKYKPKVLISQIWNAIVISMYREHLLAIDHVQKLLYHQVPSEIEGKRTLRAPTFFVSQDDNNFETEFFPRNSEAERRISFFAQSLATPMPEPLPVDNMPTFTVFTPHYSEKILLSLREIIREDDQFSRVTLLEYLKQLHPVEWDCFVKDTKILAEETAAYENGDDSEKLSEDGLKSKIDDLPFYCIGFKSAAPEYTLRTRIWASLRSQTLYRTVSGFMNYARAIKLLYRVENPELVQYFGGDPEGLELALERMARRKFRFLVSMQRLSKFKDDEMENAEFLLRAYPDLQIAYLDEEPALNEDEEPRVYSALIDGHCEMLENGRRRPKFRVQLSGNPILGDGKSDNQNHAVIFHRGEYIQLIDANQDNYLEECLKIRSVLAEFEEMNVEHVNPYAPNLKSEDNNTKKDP

Candida albicans [3] = test: Antifungal activity against wild type Candida albicans CAI4 assessed as growth inhibition after 24 hrs by NCCLS broth microdilution method; type: functional; details: CAI4, 24 h
Candida albicans [4] = test: Antifungal activity against Candida albicans NR3 assessed as growth inhibition after 24 hrs by NCCLS broth microdilution method; type: functional; details: NR3, 24 h
Pichia kudriavzevii = test: Antifungal activity against wild type Candida krusei CLY549 assessed as growth inhibition after 24 hrs by NCCLS broth microdilution method; type: functional; details: CLY549, 24 h
Candida parapsilosis = test: Antifungal activity against wild type Candida parapsilosis ATCC 22019 assessed as growth inhibition after 24 hrs by NCCLS broth microdilution method; type: functional; details: Lodderomyces parapsilosis, ATCC 22019, 24 h
[5] = Inhibition of caspofungin-resistant Candida albicans CLY-16996 1,3-beta-D-glucan synthase component FKS1/FKS1 S645F mutant using UDP[6,3H]-glucose as substrate after 60 mins by liquid scintillation counting analysis
Candida albicans [6] = test: Antifungal activity against Candida albicans MY1055 infected in DBA/2 mouse assessed as reduction of log CFU in kidney administered 30 mins as ip tid post infection measured after 24 hrs; type: functional
[7] = system: Meyerozyma guilliermondii; test: Antifungal activity against wild type Candida guilliermondii CLY308 assessed as growth inhibition after 24 hrs by NCCLS broth microdilution method; type: functional; details: CLY308, 24 h
Candida albicans [8] = test: Antifungal activity against wild type Candida albicans MY1055 assessed as growth inhibition after 24 hrs by NCCLS broth microdilution method; type: functional; details: MY1055, 24 h
[9] = Inhibition of caspofungin-resistant Candida albicans CLY-16997 1,3-beta-D-glucan synthase component FKS1/FKS1 S645P mutant using UDP[6,3H]-glucose as substrate after 60 mins by liquid scintillation counting analysis
Nakaseomyces glabratus = test: Antifungal activity against wild type Candida glabrata MY1381 assessed as growth inhibition after 24 hrs by NCCLS broth microdilution method; type: functional; details: MY1381, 24 h
Candida albicans [10] = test: Antifungal activity against wild type Candida albicans MY1055 assessed as growth inhibition after 24 hrs by NCCLS broth microdilution method in presence of human serum; type: functional; details: MY1055, 24 h

CCCCCOc1ccc(-c2cc(-c3ccc(C(=O)N[C@H]4C[C@@H](O)[C@@H](O)NC(=O)[C@@H]5[C@@H](O)CCN5C(=O)[C@H]([C@H](O)CC(N)=O)NC(=O)[C@H]([C@H](O)[C@@H](O)c5ccc(O)cc5)NC(=O)[C@@H]5C[C@@H](O)CN5C(=O)[C@H]([C@@H](C)O)NC4=O)cc3)no2)cc1 (X1-[Orn(4R-OH,5R-OH)]T[Hyp][hTyr(3S-OH,4S-OH)][Gln(3R-OH)][Pro(3S-OH)]; lactam 1-C)
MIC80 (Candida albicans [1]): 1 µg/mL (≈ 0.862 µM) | MIC (Candida albicans [1]; read-out: MIC100): 4 µg/mL (≈ 3.45 µM) | MIC (Escherichia coli): > 32 µg/mL | MIC (Cryptococcus neoformans): > 32 µg/mL | MIC (Candida albicans [2]): 2 µg/mL (≈ 1.72 µM) | MIC80 (Clavispora lusitaniae): < 0.03 µg/mL | MIC (Clavispora lusitaniae; read-out: MIC100): 0.125 µg/mL (≈ 0.108 µM) | MIC (Staphylococcus aureus): > 32 µg/mL | MIC80 (Aspergillus fumigatus): < 0.03 µg/mL | minimal effective concentration (Aspergillus fumigatus; read-out: MEC): > 32 µg/mL | IC50 (Beta-1,3-glucan synthase): 2.8 nM | MIC80 (Candida albicans [3]): < 0.03 µg/mL | MIC (Candida albicans [3]; read-out: MIC100): 0.06 µg/mL (≈ 0.0517 µM) | MIC80 (Candida albicans [4]): 4 µg/mL (≈ 3.45 µM) | MIC (Candida albicans [4]; read-out: MIC100): 8 µg/mL (≈ 6.9 µM) | MIC80 (Pichia kudriavzevii): 0.25 µg/mL (≈ 0.215 µM) | MIC (Pichia kudriavzevii; read-out: MIC100): 2 µg/mL (≈ 1.72 µM) | MIC80 (Candida parapsilosis): 2 µg/mL (≈ 1.72 µM) | MIC (Candida parapsilosis; read-out: MIC100): 32 µg/mL (≈ 27.6 µM) | IC50 [5]: 2.1 nM | ED90 (Candida albicans [6]): 0.24 mg/kg/day | ED99 (Candida albicans [6]): 1.31 mg/kg/day | MIC80 [7]: 1 µg/mL (≈ 0.862 µM) | MIC ([7]; read-out: MIC100): 2 µg/mL (≈ 1.72 µM) | MIC80 (Candida albicans [8]): < 0.03 µg/mL | MIC (Candida albicans [8]; read-out: MIC100): 0.125 µg/mL (≈ 0.108 µM) | IC50 [9]: 2.4 nM | MIC80 (Nakaseomyces glabratus): 0.25 µg/mL (≈ 0.215 µM) | MIC (Nakaseomyces glabratus; read-out: MIC100): 0.5 µg/mL (≈ 0.431 µM) | MIC80 (Candida albicans [10]): 0.25 µg/mL | MIC (Candida albicans [10]; read-out: MIC100): 1 µg/mL
